Results on 1 compound are retold here after patent US20080003184A1, “Superparamagnetic Gadolinium Oxide Nanoscale Particles and Compositions Comprising Such Particles” (priority 2004, published 2008).

Molecules are shown by their SMILES. Like-named read-outs stand apart in the source and are kept apart here.

The nature of series [1]: Signal intensity from first echo of spin echo sequence (TE=30 ms, TR=500 ms). In kind it is physicochemical. The method, then: (§1) Samples of Gd2O3-DEG from Example 1 (with an average particle size of about 5 nm and a particle size range from about 1 to 15 nm) and Gd-DTPA (Magnevist®) were prepared in 10 mm NMR test tubes with H2O at 9 different Gd concentrations from […]. At measurement the test tubes were immersed in a bowl with saline at 22-23° C., which was the temperature of the scanner room.
(§2) T1 and T2 relaxation times were measured with a 1.5 T Philips Achieva whole body scanner using the head coil. A 2D mixed multi-echo SE interleaved with multi-echo IR sequence was used for the measurements [kleef_mrm—1987]. Imaging time parameters were varied to minimise the standard deviations in relaxation time calculations: TE=30 ms, TR (SE)=500 ms, TI=150 ms, and TR (IR)=1150 ms (set 1); TE=50 ms, TR (SE)=760 ms, TI=370 ms, and TR (IR)=2290 ms (set 2). Other MR parameters were: FOV=23 cm, slice thickness=7 mm, number of echoes=4.
At higher concentrations (>0.9 mM) the strong T2 effect attenuated the signal for the nanoparticle samples. That is, the Gd2O3 sample reached the signal intensity peak at lower concentrations (0.6 mM) compared to the Gd-DTPA signal intensity that peaked at approximately 1.2 mM in this sequence.
In addition, samples of Gd2O3-DEG and Resovist® were prepared and tested under the same conditions as above. There were 6 different Gd and Fe concentrations between 0.1 and 1.5 mM. […]

The subject of another series is THP-1 cells. Put plainly: Monocyte studies: incubation, washing, T1/T2 measurement. In kind it is cell-based. Conditions: 0.1-0.9 mM Gd, 2 h or 8 h at 37° C., washed twice. The method, then: For monocyte experiments, THP-1 cells were cultured in RPMI 1640 medium with 10% fetal calf serum (GIBCO, Invitrogen, Carlsbad, Calif., USA) with additions of L-glutamate and penicillin/streptomycin solution (Invitrogen). Cells were counted and found 97% viable. Cells were treated with Gd2O3-DEG or Gd-DTPA in concentrations 0.1, 0.3, 0.6, and 0.9 mM. Cells of one well were left untreated. A control series was prepared of cell culture medium only with the different concentrations of Gd2O3-DEG particles. Two plates of 24 wells each were prepared as described above; one was incubated with the Gd2O3-DEG and Gd-DTPA for 2 h and the other one for 8 h at 37° C. After incubation cells were transferred to Falcon tubes and washed twice with medium and centrifugated for 8 minutes at 1100 rpm.

A short description of series [2]: Relaxation time measurements (T1, T2 relaxivity) in H2O, 1.5 T scanner. Format: physicochemical. The conditions noted are these: 22-23° C. As to the method:
as §1, §2
In addition, samples of Gd2O3-DEG and Resovist® were prepared and tested under the same conditions as above. There were 6 different Gd and Fe concentrations between 0.1 and 1.5 mM. Resovist® is based on ferrocarbotran colloidal sol of superparamagnetic iron oxide nanoparticles (SPIO). The particles have a hydrodynamic diameter of 60 nm on an iron core of 4 nm. […] Accordingly, Gd2O3-DEG particles enable a contrast agent with complementary properties to those based on SPIO.

For series [3] the following is noted: Magnevist 0.1 mmol/kg, cited from earlier work.

As for `O=C([O-])CN(CCN(CC(=O)[O-])CC(=O)O)CCN(CC(=O)[O-])CC(=O)O.[Gd+3]` [Gd-DTPA], the “Gd concentration at signal intensity peak” value in series [1] was “approximately 1.2 mM”. Besides, the “Presence with cells after the washing procedure” value in the series on THP-1 cells is on record as “not present in the cell suspension after the washing”. In series [2], this compound came in with a r1 relaxivity constant of 4.86 ± 0.08 mM⁻¹ s⁻¹ and a r2 relaxivity constant of 5.53 ± 0.14 mM⁻¹ s⁻¹. The “detected plasma concentration of Gd” value in series [3] (3 minutes after injection) is listed as 0.6 mM. Moreover, in series [3] (60 minutes after injection), the “detected plasma concentration of Gd” value was 0.24 mM.
